Each compound was assayed on SRE.L-firefly luciferase reporter (Rho/MKL1 pathway) in PC-3 prostate cancer cells (assay: SRE.L-luciferase reporter assay). Details: 19 h, PC-3 cells transfected with Gα12Q231L, SRE.L and pRL-TK reporters; compound 19 hrs.
Type: cell-based
Method: Seed PC-3 prostate cancer cells (40,000 cells/well) were grown in 96-well plates in 10% FBS containing DMEM medium. Cells were transiently transfected with the Ga12QL activator of the Rho/MKL1 pathway, along with the SRE.L-firefly luciferase reporter construct for 6 hours. Additionally, cells were co-transfected with the TK-Renilla luciferase reporter as an indicator of non-specific compound effects. Various concentrations of the compounds disclosed herein were added to the 96-well plates. Plates were incubated for 19 hours at 37° C. and 5% C02 in 0.5% FBS containing DMEM medium. Cells were lysed with IX Passive Lysis Buffer (Promega). Plates were incubated for 30 minutes at room temperature. Luminescence counts were read with a Victor2 (Perkin-Elmer) plate reader.
One hour prior to cell lysis for the dual luciferase assay, 10 μl: per well of WST1 reagent (Roche) was added to the 96-well plates. Plates were incubated for 1 hour at 37° C. and 5% CO2. Cell viability was measured by WST1 absorbance at 450 nm with a Victor2 (Perkin-Elmer) plate reader.
Biological activity of the compounds disclosed herein were assessed in the SRE.L luciferase reporter assay. PC-3 prostate cancer cells were co-transfected with 2 ng of the Gα12Q231L expression plasmid along with 50 ng of the SRE.L and 7 ng of the pRL-TK luciferase reporter plasmids, as described in the Materials and Methods section. Cells were treated with 0 (vehicle, DMSO alone), 1, 3, 10, 30, and 100 μM of a compound disclosed herein for 19 hrs after transfection before lysis. Luminescence was determined as described in the Materials and Methods section. Just before cell lysis, the viability of the cells was measured using the WST-1 cell proliferation reagent as described in the Materials and Methods section. Data are expressed as percentage of inhibition (DMSO alone=0%). The experiments were performed three separate times to achieve n=3 in triplicate.
CCOC(=O)NC1CC(C(=O)Nc2ccc(Cl)cc2)CN(C(=O)c2cccc(-c3ccco3)c2)C1 (stereo not drawn) [Example E-058, ethyl (5-((4-chlorophenyl)carbamoyl)-1-(3-(furan-2-yl)benzoyl)piperidin-3-yl)carbamate] gave an IC50 of 15000 nM. Work on O=C(c1cccc(-c2ccco2)c1)N1CC(COc2ccc(Cl)cc2)CC(F)(F)C1 (stereo not drawn) [Example E-059, (5-((4-chlorophenoxy)methyl)-3,3-difluoropiperidin-1-yl) (3-(furan-2-yl)phenyl)methanone] yielded an IC50 of 31000 nM. O=C(c1cccc(-c2ccco2)c1)N1CCCC(NS(=O)(=O)c2ccc(Cl)cc2)C1 (stereo not drawn) [Example E-062, 4-chloro-N-(1-(3-(furan-2-yl)benzoyl)piperidin-3-yl)benzenesulfonamide] gave an IC50 of 21000 nM. O=C1CC(C(=O)Nc2ccc(Cl)cc2)CN(C(=O)c2cccc(-c3ccco3)c2)C1 (stereo not drawn) [Example E-063, N-(4-chlorophenyl)-1-(3-(furan-2-yl)benzoyl)-5-oxopiperidine-3-carboxamide] gave an IC50 of 15000 nM. CN(C)C1CC(C(=O)Nc2ccc(Cl)cc2)CN(C(=O)c2cccc(-c3ccco3)c2)C1 (stereo not drawn) [Example E-064, N-(4-chlorophenyl)-5-(dimethylamino)-1-(3-(furan-2-yl)benzoyl)piperidine-3-carboxamide] gave an IC50 of 6900 nM. For O=C(NC1CCCN(C(=O)c2cccc(-c3ccco3)c2)C1)c1ccc(Cl)cc1 (stereo not drawn) [Example E-065, 4-chloro-N-(1-(3-(furan-2-yl)benzoyl)piperidin-3-yl)benzamide], the IC50 was 13000 nM. Work on O=C(c1cccc(-c2ccco2)c1)N1CCCC(COc2ccc(Cl)cc2)C1 (stereo not drawn) [Example E-066, (3-((4-chlorophenoxy)methyl)piperidin-1-yl)(3-(furan-2-yl)phenyl)methanone] yielded an IC50 of 2300 nM. Work on O=C(Nc1ccc(Cl)cc1)C1CN(C(=O)c2cccc(-n3cccn3)c2)CC(F)(F)C1 (stereo not drawn) [Example E-067, 1-(3-(1H-pyrazol-1-yl)benzoyl)-N-(4-chlorophenyl)-5,5-difluoropiperidine-3-carboxamide] yielded an IC50 of 7000 nM. O=C(Nc1ccc(Cl)cc1)C1CN(C(=O)c2cccc(-c3ccncc3)c2)CC(F)(F)C1 (stereo not drawn) [Example E-068, N-(4-chlorophenyl)-5,5-difluoro-1-(3-(pyridin-4-yl)benzoyl) piperidine-3-carboxamide] gave an IC50 of 780 nM. With Cc1oc(-c2ccccc2)nc1C(=O)N1CCCC(C(=O)Nc2ccc(Cl)cc2)C1 (stereo not drawn) [Example E-069, N-(4-chlorophenyl)-1-(5-methyl-2-phenyloxazole-4-carbonyl)piperidine-3-carboxamide] the IC50 was 1800 nM. O=C(Nc1ccc(Cl)cc1)C1CN(C(=O)Cc2nc3ccccc3[nH]2)CC(F)(F)C1 (stereo not drawn) [Example E-070, 1-(2-(1H-benzo[d]imidazol-2-yl)acetyl)-N-(4-chlorophenyl)-5,5-difluoropiperidine-3-carboxamide] showed an IC50 of 9100 nM. O=C(Nc1ccc(Cl)cc1)C1CCCN(C(=O)Cc2cc3ccccc3o2)C1 (stereo not drawn) [Example E-071, 1-(2-(benzofuran-2-yl)acetyl)-N-(4-chlorophenyl)piperidine-3-carboxamide] showed an IC50 of 12000 nM. Cc1nc(-c2ccccc2)sc1C(=O)N1CCCC(C(=O)Nc2ccc(Cl)cc2)C1 (stereo not drawn) [Example E-072, N-(4-chlorophenyl)-1-(4-methyl-2-phenylthiazole-5-carbonyl)piperidine-3-carboxamide] showed an IC50 of 84 nM. With O=C(Nc1ccc(Cl)cc1)C1CCCN(C(=O)c2csc(-c3ccccc3)n2)C1 (stereo not drawn) [Example E-073, N-(4-chlorophenyl)-1-(2-phenylthiazole-4-carbonyl)piperidine-3-carboxamide] the IC50 was 450 nM. O=C(Nc1ccc(Cl)cc1)C1CCCN(C(=O)c2ccc3scnc3c2)C1 (stereo not drawn) [Example E-074, 1-(benzo[d]thiazole-5-carbonyl)-N-(4-chlorophenyl)piperidine-3-carboxamide] showed an IC50 greater than 100000 nM. O=C(Nc1ccc(Cl)cc1)C1CN(C(=O)c2nc3ccccc3[nH]2)CC(F)(F)C1 (stereo not drawn) [Example E-075, 1-(1H-benzo[d]imidazole-2-carbonyl)-N-(4-chlorophenyl)-5,5-difluoropiperidine-3-carboxamide] showed an IC50 of 680 nM. With O=C(Nc1ccc(Cl)cc1)C1CN(C(=O)c2ccc3cc[nH]c3c2)CC(F)(F)C1 (stereo not drawn) [Example E-076, N-(4-chlorophenyl)-5,5-difluoro-1-(1H-indole-6-carbonyl)piperidine-3-carboxamide] the IC50 was 1600 nM. Compound CC(C)(C(=O)N1CCCC(C(=O)Nc2ccc(Cl)cc2)C1)c1csc(-c2ccc(F)cc2)n1 (stereo not drawn) [Example E-077, N-(4-chlorophenyl)-1-(2-(2-(4-fluorophenyl)thiazol-4-yl)-2-methylpropanoyl)piperidine-3-carboxamide] has an IC50 of 810 nM. In the case of O=C(Nc1ccc(Cl)cc1)C1CCCN(C(=O)Cc2csc(-c3ccc(F)cc3)n2)C1 (stereo not drawn) [Example E-078, N-(4-chlorophenyl)-1-(2-(2-(4-fluorophenyl)thiazol-4-yl)acetyl)piperidine-3-carboxamide], the IC50 is reported as 1000 nM. In the case of O=C(Nc1ccc(Cl)cc1)C1CCCN(C(=O)c2cc3ccc(F)cc3[nH]2)C1 (stereo not drawn) [Example E-079, N-(4-chlorophenyl)-1-(6-fluoro-1H-indole-2-carbonyl)piperidine-3-carboxamide], the IC50 is reported as 920 nM. Compound O=C(Nc1ccc(Cl)cc1)C1CCCN(C(=O)c2cc3ccccc3[nH]2)C1 (stereo not drawn) [Example E-080, N-(4-chlorophenyl)-1-(1H-indole-2-carbonyl)piperidine-3-carboxamide] has an IC50 of 310 nM. In the case of COc1ccc2[nH]c(C(=O)N3CCCC(C(=O)Nc4ccc(Cl)cc4)C3)cc2c1 (stereo not drawn) [Example E-081, N-(4-chlorophenyl)-1-(5-methoxy-1H-indole-2-carbonyl)piperidine-3-carboxamide], the IC50 is reported as 260 nM. For O=C(Nc1ccc(Cl)cc1)C1CCCN(C(=O)c2ccc3[nH]ncc3c2)C1 (stereo not drawn) [Example E-082, N-(4-chlorophenyl)-1-(1H-indazole-5-carbonyl)piperidine-3-carboxamide], the IC50 was 370 nM. Work on O=C(Nc1ccc(Cl)cc1)C1CCCN(C(=O)CCc2c[nH]c3ccccc23)C1 (stereo not drawn) [Example E-083, 1-(3-(1H-indol-3-yl)propanoyl)-N-(4-chlorophenyl) piperidine-3-carboxamide] yielded an IC50 of 670 nM. O=C(Nc1ccc(Cl)cc1)C1CCCN(C(=O)Cc2c[nH]c3ccccc23)C1 (stereo not drawn) [Example E-084, 1-(2-(1H-indol-3-yl)acetyl)-N-(4-chlorophenyl)piperidine-3-carboxamide] gave an IC50 of 390 nM. O=C(Nc1ccc(Cl)cc1)C1CCCN(C(=O)c2cccc3[nH]ncc23)C1 (stereo not drawn) [Example E-085, N-(4-chlorophenyl)-1-(1H-indazole-4-carbonyl)piperidine-3-carboxamide] gave an IC50 of 310 nM. O=C(Nc1ccc(Cl)cc1)C1CCCN(C(=O)c2ccc3cc[nH]c3c2)C1 (stereo not drawn) [Example E-086, N-(4-chlorophenyl)-1-(1H-indole-6-carbonyl)piperidine-3-carboxamide] showed an IC50 of 97 nM. In the case of O=C(Nc1ccc(Cl)cc1)C1CCCN(C(=O)c2ccc3[nH]ccc3c2)C1 (stereo not drawn) [Example E-087, N-(4-chlorophenyl)-1-(1H-indole-5-carbonyl)piperidine-3-carboxamide], the IC50 is reported as 130 nM. O=C(Nc1ccc(Cl)cc1)C1CCCN(C(=O)c2n[nH]c3ccccc23)C1 (stereo not drawn) [Example E-088, N-(4-chlorophenyl)-1-(1H-indazole-3-carbonyl)piperidine-3-carboxamide] was tested, and the IC50 was 1500 nM. O=C(Nc1ccc(Cl)cc1)C1CCCN(C(=O)c2nc3ccccc3[nH]2)C1 (stereo not drawn) [Example E-089, 1-(1H-benzo[d]imidazole-2-carbonyl)-N-(4-chlorophenyl)piperidine-3-carboxamide] was tested, and the IC50 was 120 nM. In the case of O=C(Nc1ccc(Cl)cc1)C1CCCN(C(=O)c2ccccc2-n2cccn2)C1 (stereo not drawn) [Example E-090, 1-(2-(1H-pyrazol-1-yl)benzoyl)-N-(4-chlorophenyl) piperidine-3-carboxamide], the IC50 is reported as 240 nM. In the case of O=C(Nc1ccc(Cl)cc1)C1CCCN(C(=O)c2ccccc2-n2ccnc2)C1 (stereo not drawn) [Example E-091, 1-(2-(1H-imidazol-1-yl)benzoyl)-N-(4-chlorophenyl) piperidine-3-carboxamide], the IC50 is reported as 4100 nM. O=C(Nc1ccc(Cl)cc1)C1CCCN(C(=O)c2ccccc2-c2ccco2)C1 (stereo not drawn) [Example E-092, N-(4-chlorophenyl)-1-(2-(furan-2-yl)benzoyl)piperidine-3-carboxamide] gave an IC50 of 710 nM. In the case of O=C(Nc1ccc(Cl)cc1)C1CCCN(C(=O)c2ccc3cn[nH]c3c2)C1 (stereo not drawn) [Example E-093, N-(4-chlorophenyl)-1-(1H-indazole-6-carbonyl)piperidine-3-carboxamide], the IC50 is reported as 490 nM. Compound O=C(Nc1ccc(Cl)cc1)C1CCCN(C(=O)c2ccc3occc3c2)C1 (stereo not drawn) [Example E-094, 1-(benzofuran-5-carbonyl)-N-(4-chlorophenyl)piperidine-3-carboxamide] has an IC50 of 460 nM. CS(=O)(=O)c1ccc(NC(=O)C2CCCN(C(=O)c3cccc(-c4ccco4)c3)C2)cc1 (stereo not drawn) [Example E-095, 1-(3-(furan-2-yl)benzoyl)-N-(4-(methylsulfonyl)phenyl) piperidine-3-carboxamide] gave an IC50 of 5500 nM.
